Test results taken from patent publication US20090062369A1, “USE OF SECRETORY PHOSPHOLIPASE A2 (SPLA2) INHIBITORS TO DECREASE SPLA2 LEVELS” (priority 2007, published 2009).

System: serum sPLA2
Assay: Effect of twice-a-day oral A-002 on serum sPLA2 levels in subjects with stable coronary artery disease (Example 6)
Type: in vivo, human
Protocol: The protocol for preparing standard curve, test, and quality control samples for use in the assay disclosed herein is set forth in Example 5. Samples are prepared according to this protocol, then loaded in duplicate onto a plate (Cayman catalog no. 485002 or equivalent) that has been pre-coated with a monoclonal sPLA2 antibody (“capture antibody”) that specifically binds sPLA2. In certain embodiments, the capture antibody may interact with a specific form of sPLA2, such as for example sPLA2 type IIA.
sPLA2 acetylcholinesterase:Fab′ conjugate (AChE:Fab′) (“conjugate”) (Cayman catalog no. 485000 or equivalent) is reconstituted in EIA buffer (Cayman catalog no. 400060 or equivalent). Cayman EIA buffer is 1M phosphate, pH 7.0, 1% BSA, 4M NaCl, 10 mM EDTA, and 0.1% sodium azide. Reconstituted conjugate is added to each well of the plate. The conjugate binds a different sPLA2 epitope than the capture antibody, allowing the capture antibody and the conjugate to form a “sandwich” that is immobilized on the plate. Excess reagents are washed away, and the plate is covered and incubated overnight at 2-8° C.
Prior to development, the wells are washed five to six times with wash buffer (Cayman catalog no. 400062 or equivalent). To develop the plate, Ellman's Reagent (Cayman catalog no. 400050 or equivalent) is reconstituted in water and added to each well according to manufacturer instructions. The reconstituted Ellman's Reagent must be used the same day it is prepared because it is unstable. Ellman's Reagent contains an AChE substrate. Specifically, Ellman's Reagent contains acetylthiocholine and 5,5′-dithio-bis-(2-nitrobenzoic acid). Hydrolysis of acetylthiocholine by acetylcholinesterase produces thiocholine, which reacts with 5,5′-dithio-bis-(2-nitrobenzoic acid) to produce 5-thio-2-nitrobenzoic acid. 5-thio-2-nitrobenzoic acid has a strong absorbance at 412 nm. The intensity of absorbance at this wavelength is directly proportional to the concentration of bound conjugate, which is in turn is directly proportional to the concentration of sPLA2 present (Absorbance a [AChE:Fab′ conjugate] α [sPLA2]). During the development step, the plate is shaken, preferably in the dark. In certain embodiments the development time for the assay is 0.5 to 3 hours, preferably 1 to 1.5 hours. At the end of the development period, the high sPLA2 standards should have greater yellow color development than the zero standards. Absorbance of each well is measured at 400-420 nm using a micro-well plate reader. In certain embodiments, absorbance is measured at about 405 nm.
Absorbance readings for duplicate wells are averaged, and the relative standard deviation and % CV are calculated. Standard curve data are used to generate a four parameter curve, and quality control and test samples are measured against the appropriate standard curve (i.e., the standard curve with the same serum content). In order for a test to be considered valid, variation between duplicate wells should be no more than about 25%, and negative controls (blanks) for each standard curve should have a mean absorbance of less than about 0.3.
The method disclosed herein for measuring sPLA2 levels in serum was utilized to determine the effect of administering certain sPLA2 inhibitors on sPLA2 levels in 84 human subjects. The subjects included 24 subjects with diabetes, 32 subjects with metabolic syndrome, and 75 subjects receiving statin treatment. Subjects were administered the sPLA2 inhibitor A-002, a prodrug form of A-001, twice a day at varying dosages from 50 to 500 mg. The structures of A-002and A-001 are set forth below. At two weeks and four weeks after the first administration, sPLA2 levels were measured and compared to pre-administration baseline levels.
84 subjects with stable coronary artery disease were randomized to receive placebo or A-002 via oral administration twice a day over a four week administration period. […]

[1] = 250 mg, statin subgroup of ITT population
[2] = 500 mg, diabetes subgroup of ITT population
[3] = 500 mg, non-diabetes subgroup of ITT population

SMILES: CCc1c(C(=O)C(N)=O)c2c(OCC(=O)OC)cccc2n1Cc1ccccc1 [A-002, [[3-(2-Amino-1,2-dioxoethyl)-2-ethyl-1-(phenylmethyl)-1H-indol-4-yl]oxy]acetic acid methyl ester]
- sPLA2 Change from baseline at week 2, Mean [1]: -2.01 ng/mL
- sPLA2 Change from baseline at week 2, Median [1]: -1.65 ng/mL
- sPLA2 Change from baseline at week 2, Range [1]: -4.20 to -0.20 ng/mL
- sPLA2 Change from baseline at week 4, Mean [1]: -2.13 ng/mL
- sPLA2 Change from baseline at week 4, Median [1]: -2.15 ng/mL
- sPLA2 Change from baseline at week 4, Range [1]: −4.20 to +0.20 ng/ml
- sPLA2 level, Baseline, Mean [1]: 2.84 ng/mL
- sPLA2 level, Baseline, Median [1]: 2.40 ng/mL
- sPLA2 level, Baseline, Range [1]: 1.30 to 5.20 ng/mL
- sPLA2 level, Week 2, Mean [1]: 0.68 ng/mL
- sPLA2 level, Week 2, Median [1]: 0.30 ng/mL
- sPLA2 level, Week 2, Range [1]: 0.05 to 4.40 ng/mL
- sPLA2 level, Week 4, Mean [1]: 0.57 ng/mL
- sPLA2 level, Week 4, Median [1]: 0.30 ng/mL
- sPLA2 level, Week 4, Range [1]: 0.05 to 2.30 ng/mL
- sPLA2 Change from baseline at week 2, Mean (500 mg, ITT population): -2.84 ng/mL
- sPLA2 Change from baseline at week 2, Median (500 mg, ITT population): -2.95 ng/mL
- sPLA2 Change from baseline at week 2, Range (500 mg, ITT population): -4.80 to -0.55 ng/mL
- sPLA2 Change from baseline at week 4, Mean (500 mg, ITT population): -2.87 ng/mL
- sPLA2 Change from baseline at week 4, Median (500 mg, ITT population): -2.95 ng/mL
- sPLA2 Change from baseline at week 4, Range (500 mg, ITT population): -4.80 to -0.55 ng/mL
- sPLA2 level, Baseline, Mean (500 mg, ITT population): 2.96 ng/mL
- sPLA2 level, Baseline, Median (500 mg, ITT population): 2.80 ng/mL
- sPLA2 level, Baseline, Range (500 mg, ITT population): 0.60 to 5.40 ng/mL
- sPLA2 level, Week 2, Mean (500 mg, ITT population): 0.18 ng/mL
- sPLA2 level, Week 2, Median (500 mg, ITT population): 0.05 ng/mL
- sPLA2 level, Week 2, Range (500 mg, ITT population): 0.05 to 0.60 ng/mL
- sPLA2 level, Week 4, Mean (500 mg, ITT population): 0.15 ng/mL
- sPLA2 level, Week 4, Median (500 mg, ITT population): 0.05 ng/mL
- sPLA2 level, Week 4, Range (500 mg, ITT population): 0.05 to 0.60 ng/mL
- sPLA2 Change from baseline at week 2, Mean [2]: -3.75 ng/mL
- sPLA2 Change from baseline at week 2, Median [2]: -3.50 ng/mL
- sPLA2 Change from baseline at week 2, Range [2]: -4.80 to -2.95 ng/mL
- sPLA2 Change from baseline at week 4, Mean [2]: -3.82 ng/mL
- sPLA2 Change from baseline at week 4, Median [2]: -3.70 ng/mL
- sPLA2 Change from baseline at week 4, Range [2]: -4.80 to -2.95 ng/mL
- sPLA2 level, Baseline, Mean [2]: 3.73 ng/mL
- sPLA2 level, Baseline, Median [2]: 3.40 ng/mL
- sPLA2 level, Baseline, Range [2]: 2.70 to 5.40 ng/mL
- sPLA2 level, Week 2, Mean [2]: 0.32 ng/mL
- sPLA2 level, Week 2, Median [2]: 0.30 ng/mL
- sPLA2 level, Week 2, Range [2]: 0.05 to 0.60 ng/mL
- sPLA2 level, Week 4, Mean [2]: 0.25 ng/mL
- sPLA2 level, Week 4, Median [2]: 0.10 ng/mL
- sPLA2 level, Week 4, Range [2]: 0.05 to 0.60 ng/mL
- sPLA2 Change from baseline at week 2, Mean [3]: -2.61 ng/mL
- sPLA2 Change from baseline at week 2, Median [3]: -2.68 ng/mL
- sPLA2 Change from baseline at week 2, Range [3]: -4.40 to -0.55 ng/mL
- sPLA2 Change from baseline at week 4, Mean [3]: -2.63 ng/mL
- sPLA2 Change from baseline at week 4, Median [3]: -2.53 ng/mL
- sPLA2 Change from baseline at week 4, Range [3]: -4.35 to -0.55 ng/mL
- sPLA2 level, Baseline, Mean [3]: 2.73 ng/mL
- sPLA2 level, Baseline, Median [3]: 2.70 ng/mL
- sPLA2 level, Baseline, Range [3]: 0.60 to 4.60 ng/mL
- sPLA2 level, Week 2, Mean [3]: 0.15 ng/mL
- sPLA2 level, Week 2, Median [3]: 0.05 ng/mL
